Source: patent publication US20260240869A1, “ANTIPSEUDOMONAL FUSIDIC ACID COMPOUNDS” (priority 2022, published 2026)
Converted amounts (≈) assume the structure as drawn. Like-named read-outs stand apart in the source and are kept apart here.

Assays:
E. coli MG1655 [1] = test: MIC, E. coli MG1655; format: cell-based; details: Escherichia coli
Description: (§1) Antimicrobial Susceptibility Tests. Susceptibility testing was performed in biological triplicate, using the microdilution broth method as outlined by the Clinical and Laboratory Standards Institute. Bacteria were cultured with cation-adjusted Meuller-Hinton broth (Sigma-Aldrich; catalogue number: 90922) or Luria-Bertani (LB) broth (Lennox) in round-bottom 96-well plates (Corning; catalogue number: 3788).

S. aureus ATCC 29213 = test: MIC, S. aureus ATCC 29213; format: cell-based; details: Staphylococcus aureus
Description: as §1

P. aeruginosa PAO1 [2] = test: LC-MS/MS whole-cell accumulation assay, P. aeruginosa PAO1; format: cell-based, Pseudomonas aeruginosa; details: for PA Accumulation (FA): P. aeruginosa PAO1, accumulation of FA reported (Table 8)
Description: (§2) Accumulation Assay. The accumulation assay was performed in triplicate in batches of ten samples, with each batch containing tetracycline or ciprofloxacin as a positive control. P. aeruginosa PAO1, PAO1 A6, PA14, PA14 A40, and PA1280, and E. coli MG1655 were used in these experiments. For each replicate, 2.5 mL (E. coli) or 5 mL (P. aeruginosa) of an overnight culture was diluted into 250 mL of fresh Luria-Bertani broth (Lennox) or Tryptic Soy Broth (TSB) and grown at 37° C. with shaking to an optical density (OD600) of 0.55-0.60. The bacteria were pelleted at 3220 r.c.f. for 10 min at 4° C., and the supernatant was discarded. The pellets were resuspended in 40 mL of phosphate buffered saline (PBS) and pelleted as before, and the supernatant was discarded. The pellets were resuspended in 8.8 mL of fresh PBS and aliquoted into ten, 1.5 mL Eppendorf tubes (875 μL each). The number of colony-forming units (CFUs) was determined by a calibration curve. The samples were equilibrated at 37° C. with shaking for 5 min; compound was added (final concentration=50 μM), and then the samples were incubated at 37° C. with shaking for either 10 min. These time points were short enough to minimize metabolic and growth changes (no changes in OD600 or CFU count observed). After incubation, 800 μL of the cultures was carefully layered on 700 μL of silicone oil (9:1 AR20/Sigma High Temperature, cooled to −78° C.). Bacteria were pelleted through the oil by centrifuging at 13 000 r.c.f. for 2 min at room temperature (with the supernatant remaining above the oil); the supernatant and oil were then removed by pipetting. To lyse the samples, each pellet was dissolved in […] of water, and then, they were subjected to three (E. coli) or four (P. aeruginosa) freeze-thaw cycles of 3 min in liquid nitrogen followed by 3 min in a water bath at 65° C. P. aeruginosa samples were then treated with 50 µM DNase and RNase and incubated at 37° C. for 15 minutes. The lysates were pelleted at 13 000 r.c.f. for 2 min at room temperature, and the supernatant was collected ([…]). The debris was resuspended in 100 μL of methanol and pelleted as before. The supernatants were removed and combined with the previous supernatants collected. Finally, the remaining debris was removed by centrifuging at 20 000 r.c.f. for 10 min at room temperature. Supernatants were analyzed by LC-MS/MS.
(§3) Samples were analyzed with the 5500 QTRAP LC/MS/MS system (AB Sciex) with a 1200 series HPLC system (Agilent Technologies) including a degasser, an autosampler, and a binary pump. Liquid chromatography separation was performed on an Agilent SB-Aq column (4.6×50 mm, 5 μm) (Agilent Technologies) with mobile phase A (0.1% formic acid in water) and mobile phase B (0.1% formic acid in acetonitrile). The flow rate was 0.3 mL/min. The linear gradient was as follows: 0-3 min, 100% mobile phase A; 10-15 min, 2% mobile phase A; 15.5-21 min, 100% mobile phase A. The autosampler was set at 5° C. The injection volume was 15 μL. Mass spectra were acquired with both positive electrospray ionization at the ion spray voltage of 5500 V and negative electrospray ionization at the ion spray voltage of −4500 V. The source temperature was 450° C. The curtain gas, ion source gas 1, and ion source gas 2 were 33, 50, and 65, respectively. Multiple reaction monitoring was used to quantify the metabolites. Power analysis was not used to determine the number of replicates. Error bars represent the standard error of the mean of three biological replicates. The statistical significance of the accumulation was determined using a two sample Welch's t test (one-tailed test, assuming unequal variance) relative to the negative controls. All compounds evaluated in the biological assays were >95% pure.
MBN assay. Assays measuring permeabilization by polymyxin B nonapeptide (PMBN) were performed as above, with the addition of 8 μg/mL PMBN immediately before the compound of interest was added.

E. coli MG1655 [3] = test: LC-MS/MS whole-cell accumulation assay, E. coli MG1655; format: cell-based; details: E. coli MG1655; accumulation of FA reported (Table 8)
Description: as §2, §3

P. aeruginosa PAO1 [4] = test: NPN outer membrane permeability assay; format: cell-based, Pseudomonas aeruginosa; details: treatment for ten minutes
Text: Further, the fluorescent probe N-phenylnapthylamine (NPN) was used to assess outer membrane permeability changes upon treatment with FA, gentamicin, and FA prodrug. NPN is membrane impermeable and is only weakly fluorescent in aqueous solutions. Upon entry to the cell and interacting with phospholipids, significant fluorescence is observed. […] This residual membrane depolarizing antibacterial activity can be observed in the FA polyamine (FIG. 4a) and the diacylated compound (Table 9).

[5] = Hydrolysis of prodrug in CAMH; format: physicochemical; details: In CAMH at 37° C.
Text: As a result, amidoxime prodrug versions containing variable amine linkers were designed (Table 8).

[6] = tested on: hyperporinated P. aeruginosa A6 efflux deficient strain (PAO1 pore-A6); test: microbe, parasite or virus in culture; format: cell-based; details: Pseudomonas aeruginosa, PAO1, read-out: MIC against PAO1 pore-A6
Description: as §1

SMILES	MIC (E. coli MG1655 [1]; MG1655, read-out: E. coli MG1655 MIC)	MIC (E. coli MG1655 [1]; MG1655, read-out: MIC E. coli MG1655)	MIC (S. aureus ATCC 29213; ATCC29213, read-out: MIC S. aureus ATCC 29213)	PA Accumulation (FA) (P. aeruginosa PAO1 [2])	EC Accumulation (FA) (E. coli MG1655 [3])	NPN fluorescence (outer membrane permeability) (P. aeruginosa PAO1 [4])	period of hydrolysis to fusidic acid [5]	MIC (E. coli MG1655 [1]; MG1655, CLSI (Table 8), read-out: E. coli MG1655 MIC)	MIC (E. coli MG1655 [1]; MG1655, Table 9, read-out: MIC E. coli MG1655)	MIC (S. aureus ATCC 29213; ATCC29213, Table 9, read-out: MIC S. aureus ATCC 29213)	MIC [6]	accumulation in PAO1 (in words) (P. aeruginosa PAO1 [2]; FIG. 1a / FIG. 5)	change of accumulation upon membrane permeabilization (P. aeruginosa PAO1 [2]; treatment with PMBN, FIG. 1b)
CC(=O)O[C@H]1C[C@@]2(C)[C@@H](C[C@@H](O)[C@H]3[C@@]4(C)CC[C@@H](O)[C@@H](C)[C@@H]4CC[C@@]32C)/C1=C(\CCC=C(C)C)C(=O)O/N=C(\N)CNCCCNCCCNCCCN [FA prodrug, (3R, 4S,5S,8S,9S,10S,11R,13R,14S,16S,Z)-17-((Z)-1,14-diamino-22-methyl-17-oxo-16-oxa-4,8,12,15-tetraazatricosa-14,21-dien-18-ylidene)-3,11-dihydroxy-4,8,10,14-tetramethylhexadecahydro-1H-cyclopenta[a]phenanthren-16-yl acetate]	4 µg/mL	4 µg/mL	1 µg/mL	3396 ± 122 nmol/1012 CFUs	3337 ± 175 nmol/1012 CFUs	dose-dependent increase	48 h	–	–	–	–	–	–
CC(=O)O[C@H]1C[C@@]2(C)[C@@H](C[C@@H](O)[C@H]3[C@@]4(C)CC[C@@H](O)[C@@H](C)[C@@H]4CC[C@@]32C)/C1=C(\CCC=C(C)C)C(=O)O [FA, Fusidic acid]	–	–	–	80 ± 7 nmol/1012 CFUs	52 ± 5 nmol/1012 CFUs	did not lead to any change in fluorescence	–	512 µg/mL (≈ 991 µM)	512 µg/mL (≈ 991 µM)	0.125 µg/mL (≈ 0.242 µM)	4 µg/mL (≈ 7.74 µM)	does not accumulate	significant increase in accumulation
